For this assay, the system named is HIV-1. The assay is described as follows: HIV-1 infection assay (MT4-GFP cells, inhibition of reproductive ratio R0). The format is cell-based. The procedure:
Assessing Antiviral Potency Using An HIV-1 Infection Assay
HIV-1 replication was monitored using MT4-gag-GFP clone D3 (hereafter designate MT4-GFP), which are MT-4 cells modified to harbor a GFP reporter gene, the expression of which is dependent on the HIV-1 expressed proteins tat and rev. Productive infection of an MT4-GFP cell with HIV-1 results in GFP expression approximately 24 h post-infection.
MT4-GFP cells were maintained at 37° C./5% CO2/90% relative humidity in RPMI 1640 supplemented with 10% fetal bovine serum, 100 U/ml penicillin/streptomycin, and 400 μg/ml G418 to maintain the reporter gene. For infections, MT4-GFP cells were placed in the same medium lacking G418 and infected overnight with H9IIIB or NL4-3 virus at an approximate multiplicity of infection of 0.01 in the same incubation conditions. Cells were then washed and resuspended in either RPMI 1640 containing no serum at 1.6×10^5 cells/mL (serum free conditions), 10% normal human serum at 1.6×10^5 cells/mL (10% NHS conditions) or in 100% normal human serum at 2×10^5 cells/mL (100% NHS conditions). Compound plates were prepared by dispensing compounds taken up in DMSO into wells of 384 well poly D lysine-coated plates (0.2 μl/well) using an ECHO acoustic dispenser. Each compound was tested in a 10 point serial 3-fold dilution (typical final concentrations: 4.2 μM-0.21 nM). Controls included no inhibitor (DMSO only) and a combination of three antiviral agents (efavirenz, indinavir, and the integrase strand transfer inhibitor L-002254051 at final concentrations of 4 μM each). Cells were added (50 μL/well) to compound plates and the infected cells were maintained at 37° C./5% CO2/90% relative humidity.
Infected cells were quantified at two time points, ˜48 h and ˜72 h post-infection, by counting the number of green cells in each well using an Acumen eX3 scanner. The increase in the number of green cells over ˜24 h period gives the reproductive ratio, R0, which is typically 5-15 and has been shown experimentally to be in logarithmic phase (data not shown). Inhibition of R0 is calculated for each well, and IC50 value was determined using non-linear 4-parameter curve fitting.

The mark [1] stands for this setting: MT4-GFP cells infected with H9IIIB or NL4-3 virus, 0% NHS (serum free conditions), read-out: VIKING IP (nM) with 0% NHS.
Where [2] appears, read: MT4-GFP cells infected with H9IIIB or NL4-3 virus, 100% normal human serum, read-out: VIKING IP (nM) with 100% NHS.
Setting [3] is: Human immunodeficiency virus 1, NL43, MT4-GFP cells infected with H9IIIB or NL4-3 virus, 0% NHS (serum free conditions), read-out: VIKING IP (nM) with 0% NHS.
[4] abbreviates: Human immunodeficiency virus 1, NL43, MT4-GFP cells infected with H9IIIB or NL4-3 virus, 100% normal human serum, read-out: VIKING IP (nM) with 100% NHS.

Read-outs that look alike come from different tables or passages of the source.

As for `CN1C(=O)c2c(O)c(=O)c(C(=O)NCc3ccc(F)cc3F)cn2N(C)C12CC[C@H](P(=O)(O)O)C2` (single isomer, unassigned) [Compound 22], the IC50 came to 120 nM under setting [1] and 340 nM under setting [2]. Taken in the same sequence, the figures for `CC(C)OC(=O)OCOP(=O)(OCOC(=O)OC(C)C)[C@H]1CCC2(C1)N(C)C(=O)c1c(O)c(=O)c(C(=O)NCc3ccc(F)cc3F)cn1N2C` (single isomer, unassigned) [Compound 23] were 0.28 nM and 3.6 nM.

For `CCOP(=O)(OCC)[C@H]1CCC2(C1)N(C)C(=O)c1c(O)c(=O)c(C(=O)NCc3ccc(F)cc3F)cn1N2C` (single isomer, unassigned) [Compound 24], the IC50 is, setting by setting: under setting [3], 9.1 nM; under setting [4], 4120 nM. Take `CN1C(=O)c2c(O)c(=O)c(C(=O)NCc3ccc(F)cc3F)cn2N(C)C12CC[C@H](P(=O)(O)O)C2` (single isomer, unassigned) [Compound 25]: the IC50 under setting [3] is 190 nM and the IC50 under setting [2] stood at 1070 nM. As for `CC(C)OC(=O)OCOP(=O)(OCOC(=O)OC(C)C)[C@H]1CCC2(C1)N(C)C(=O)c1c(O)c(=O)c(C(=O)NCc3ccc(F)cc3F)cn1N2C` (single isomer, unassigned) [Compound 26], the IC50 under setting [1] stood at 1 nM and the IC50 under setting [2] turned out to be 35.9 nM.

As to `CCOP(=O)(OCC)[C@@H]1CCC2(C1)N(C)C(=O)c1c(O)c(=O)c(C(=O)NCc3ccc(F)cc3F)cn1N2C` (single isomer, unassigned) [Compound 27], the IC50 was 5.6 nM under setting [1] and 78.2 nM under setting [2]. With `CN1C(=O)c2c(O)c(=O)c(C(=O)NCc3ccc(F)cc3F)cn2N(C)C12CC[C@@H](P(=O)(O)O)C2` (single isomer, unassigned) [Compound 28], the IC50 is 221 nM under setting [3] and 420 nM under setting [2]. For `CC(C)OC(=O)OCOP(=O)(OCOC(=O)OC(C)C)[C@@H]1CCC2(C1)N(C)C(=O)c1c(O)c(=O)c(C(=O)NCc3ccc(F)cc3F)cn1N2C` (single isomer, unassigned) [Compound 29], the IC50 was found to be 4.8 nM under setting [4] and 0.2 nM under setting [1].

Turning to `CCOP(=O)(OCC)[C@@H]1CCC2(C1)N(C)C(=O)c1c(O)c(=O)c(C(=O)NCc3ccc(F)cc3F)cn1N2C` (single isomer, unassigned) [Compound 30], the IC50 is, setting by setting: under setting [1], 13.7 nM; under setting [2], 1050 nM. For the molecule `CN1C(=O)c2c(O)c(=O)c(C(=O)NCc3ccc(F)cc3F)cn2N(C)C12CC[C@@H](P(=O)(O)O)C2` (single isomer, unassigned) [Compound 31], the IC50 was 206 nM under setting [1] and 1070 nM under setting [2]. Taken in the same sequence, the figures for `CC(C)OC(=O)OCOP(=O)(OCOC(=O)OC(C)C)[C@@H]1CCC2(C1)N(C)C(=O)c1c(O)c(=O)c(C(=O)NCc3ccc(F)cc3F)cn1N2C` (single isomer, unassigned) [Compound 32] were 0.9 nM and 7 nM.

For the molecule `CCOP(=O)(CCN1n2cc(C(=O)NCc3ccc(F)cc3F)c(=O)c(O)c2C(=O)N(C)C12CCCC2)OCC` [Compound 2], the IC50 is, setting by setting: under setting [3], 2.8 nM; under setting [4], 81.1 nM. With `CN1C(=O)c2c(O)c(=O)c(C(=O)NCc3ccc(F)cc3F)cn2N(CCP(=O)(O)O)C12CCCC2` [Compound 4], the IC50 under setting [3] was 32.2 nM and the IC50 under setting [4] is 2750 nM. For `CC(C)OC(=O)OCOP(=O)(CCN1n2cc(C(=O)NCc3ccc(F)cc3F)c(=O)c(O)c2C(=O)N(C)C12CCCC2)OCOC(=O)OC(C)C` [Compound 7], in that order: 0.2 nM and 2.1 nM. As to `CC(C)OC(=O)OCOP(=O)(O)CCN1n2cc(C(=O)NCc3ccc(F)cc3F)c(=O)c(O)c2C(=O)N(C)C12CCCC2` [Compound 8], the IC50 came out at 2.3 nM under setting [3] and 660 nM under setting [4]. Regarding `CCN1C(=O)c2c(O)c(=O)c(C(=O)NCc3ccc(F)cc3F)cn2N(CCP(=O)(N[C@@H](C)C(=O)OC(C)C)Oc2ccccc2)C12CCCC2` (stereo partly shown) [Compound 9], the IC50 (Human immunodeficiency virus 1, NL43, read-out: VIKING IP (nM) with 0% NHS) was 3.8 nM.

With `CCOP(=O)(OCC)[C@H]1CCC2(C1)N(C)C(=O)c1c(O)c(=O)c(C(=O)NCc3ccc(F)cc3F)cn1N2C` (stereo partly shown) [Compound 21], the IC50 runs as follows: under setting [3], 5.3 nM; under setting [4], 32.7 nM.

Consider `CCOP(=O)(CCN1n2cc(C(=O)NCc3ccc(F)cc3F)c(=O)c(O)c2C(=O)N(CC)C12CCCC2)OCC` [Compound 33], for which the IC50 is 4.4 nM under setting [3] and 163 nM under setting [4]. For `CCN1C(=O)c2c(O)c(=O)c(C(=O)NCc3ccc(F)cc3F)cn2N(CCP(=O)(O)O)C12CCCC2` [Compound 34], in that order: 15.4 nM and 2490 nM. For `CCOP(=O)(OCC)C1CCC2(C1)N(CC)C(=O)c1c(O)c(=O)c(C(=O)NCc3ccc(F)cc3F)cn1N2C` (stereo not shown) [Compound 35], in that order: 9.4 nM and 126 nM. For `CCN1C(=O)c2c(O)c(=O)c(C(=O)NCc3ccc(F)cc3F)cn2N(C)C12CCC(P(=O)(O)O)C2` (stereo not shown) [Compound 36], in that order: 187 nM and 583 nM. Regarding `CCN1C(=O)c2c(O)c(=O)c(C(=O)NCc3ccc(F)cc3F)cn2N(C)C12CCC(P(=O)(OCOC(=O)OC(C)C)OCOC(=O)OC(C)C)C2` (stereo not shown) [Compound 37], the IC50 reads like this: under setting [3], 0.2 nM; under setting [4], 2.8 nM.

The values above are taken from patent US10548910B2, “Amido-substituted pyridotriazine derivatives useful as HIV integrase inhibitors” (priority 2015, dated 2020).
